Common to all, as to test: NCI-60 cell line screen, 48 h
The test system of assay [1] is CAKI-1 renal.
Assay [2] deals with EKVX NSCLC.
Assay [3] deals with HCC-2998 colon.
In assay [4] the test system is HOP-92 NSCLC.
Assay [5] has as its system MALME-3M melanoma.
Assay [6] deals with MDA-MB-231 breast.
Assay [7] deals with MDA-N.
Assay [8] concerns NCI-H226 lung.
For assay [9], the system named is OVCAR-4 ovarian.
In assay [10] the test system is PC-3 prostate.
Assay [11] deals with SK-MEL-5 melanoma.
Assay [12] relates to SN12C renal.
Assay [13] deals with SR leukemia.

Structures are written as SMILES. Several values for one entry are separate records, joined by “and”; a condition that tells them apart may be missing. Identical values can stand only once.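 Method: 48-hour compound exposure of cells in 96-well plates, five concentrations, linear interpolation of endpoints. GI50: concentration for 50% inhibition of growth. TGI marks complete inhibition of growth.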 Where only a bound is given, the exact number is not on record here.

Take `CCOC(=O)c1cc2c3c(cc(OC)c2[nH]1)N(C(=O)OCC)CC3`: the TGI in assay [1], in assay [2], in assay [3], in assay [4], in [5] and in [6] was greater than 100 µM each time. The TGI in assay [7], in assay [8], in assay [9], in assay [10], in [11] and in [12] was greater than 100 µM in each case. Moreover, in [13], the TGI was greater than 100 µM.

`O=C(NCc1ccccc1Cl)c1c(O)c2ccccc2[nH]c1=O`: the TGI was 96.6 µM in [1]; greater than 100 µM in [2]; greater than 100 µM in [3]; 58.7 µM in assay [4]; greater than 100 µM in [5]; 45.3 µM in [6]. The TGI in [7] is greater than 100 µM; in assay [8], greater than 100 µM; in assay [9], 23.2 µM; in assay [10], greater than 100 µM; in assay [11], greater than 100 µM; in assay [12], greater than 100 µM. This compound had a TGI in assay [13] greater than 100 µM.

Regarding `COC1OC(C(=O)O)C2OC(C)(C)OC12` (stereo not given), the TGI in assay [1], in assay [2], in [3], in assay [4], in [5] and in assay [6] was greater than 100 µM throughout. For the same compound, the TGI in assay [7], in [8], in [9], in [10], in assay [11] and in assay [12] was greater than 100 µM each time. In assay [13], this compound gave a TGI greater than 100 µM.

For `CC(C)=CCCC1(C)C2COC(=O)C21` (stereo not given), the GI50 in assay [1] is > 100 µM and 16 µM; in [4], > 100 µM and 34.2 µM; in assay [7], > 100 µM and 31.7 µM; in [8] it was greater than 100 µM; in assay [11] it was > 100 µM and 17.5 µM; in [12], 52.8 µM and 19.3 µM. The GI50 in [13] was greater than 100 µM. The TGI in assay [1] is > 100 µM and 30.7 µM; in [2], greater than 100 µM; in assay [3], greater than 100 µM; in [4], > 100 µM and 97.3 µM; in assay [5], greater than 100 µM; in assay [6] it was greater than 100 µM. In addition, the TGI in assay [7] is greater than 100 µM; in assay [8] it was greater than 100 µM; in assay [9], greater than 100 µM; in assay [10] it was greater than 100 µM; in assay [11], > 100 µM and 34.6 µM; in [12] it was > 100 µM and 39.9 µM. This compound registered a TGI in [13] greater than 100 µM.

With `CC(NNC(=O)c1ccncc1)c1ccc(Cl)cc1Cl` (stereo not given), the TGI in assay [1], in assay [2], in assay [3], in [4], in assay [5] and in assay [6] was greater than 100 µM each time. The TGI in assay [7], in assay [8], in assay [9], in [10], in [11] and in [12] was greater than 100 µM each time. Besides, in assay [13], the TGI was greater than 100 µM.

Take `COc1ccc(N=Nc2c(N)nn3c(SC)c(C#N)c(N)nc23)cc1`: the TGI in [1] was determined as 23.5 µM; in assay [2], 21.3 µM; in assay [3] it was 16.7 µM; in assay [4], 27.6 µM; in assay [5], 31.7 µM; in assay [6] it was 7.02 µM. Further, the TGI in [7] stood at 26.7 µM; in assay [8], 40.7 µM; in assay [9], 35 µM; in [10], 21.5 µM; in assay [11] it was 34.7 µM; in assay [12] it was 19.1 µM. In assay [13], this compound showed a TGI of 4.59 µM.

Turning to `O=C1C=C/C(=C/[C@H]2SSC=C[C@]23C=CC(=O)C3)C1`, the TGI in assay [1] is 24.8 µM; in assay [2], 63.6 µM; in assay [3] it was 44.7 µM; in assay [4], 61.5 µM; in assay [5] it was 41.5 µM; in assay [6], greater than 83.1 µM. Also, the TGI in assay [7] is 51.3 µM; in assay [8] it was 29.2 µM; in assay [9], greater than 74.2 µM; in assay [10], greater than 84.9 µM; in assay [11] it was 38.9 µM; in assay [12] it was 52.3 µM. The compound also yielded a TGI in [13] greater than 100 µM.

For the compound `N#CC(NNC(=O)c1ccccc1O)c1c(O)ccc2ccccc12` (stereo not given), the TGI is 21 µM in [1]; 51.7 µM in assay [2]; greater than 100 µM in assay [3]; 40.7 µM in assay [4]; 27.6 µM in [5]; 27.7 µM in assay [6]. The TGI was greater than 63.2 µM in assay [7]; 13.4 µM in [8]; 23.3 µM in assay [9]; greater than 55.1 µM in assay [10]; 10.4 µM in assay [11]; 37.9 µM in assay [12]. In addition, the TGI in assay [13] amounted to 40.8 µM.

In the case of `O=C1c2ccccc2C(=O)c2sc(Nc3cc(Cl)ccc3Cl)nc21`, the TGI in [1] came to 11.7 µM; in assay [2], 26.7 µM; in [3], 20.7 µM; in [4], 36.2 µM; in assay [5] it was 3.33 µM; in assay [6], 5.56 µM. The TGI in assay [7] stood at 3.41 µM; in [8] it was 44.7 µM; in [9], 18.2 µM; in assay [10], 18.5 µM; in assay [11] it was 2.98 µM; in [12], 3.17 µM. The same compound gave a TGI in assay [13] greater than 100 µM.

With `CC(=O)[C@]1(O)Cc2c(O)c3c(c(O)c2[C@@H](OC2CC(N)C(O)C(C)O2)C1)C(=O)c1c(OCc2ccccc2)cccc1C3=O` (stereo not given in full), the TGI in assay [1] stood at 12 µM; in [2], 11.1 µM; in assay [3] it was 2.63 µM; in assay [4], 22.6 µM; in assay [5] it was 20.1 µM; in assay [6], 3.45 µM. The TGI in assay [7] was 2.98 µM; in [8], 5.74 µM; in assay [9], 9.36 µM; in assay [10] it was 2.64 µM; in [11], 5.84 µM; in assay [12], 4.65 µM. This compound displayed a TGI in assay [13] of 0.468 µM.

As for `COc1ccc(CC[N+]2(C)COc3cc4oc(=O)cc(C)c4cc3C2)cc1OC` (stereo not given), the TGI in [1], in [2], in [3], in assay [4], in assay [5] and in assay [6] was greater than 100 µM in each case. The TGI in assay [7], in [8], in assay [9], in [10], in assay [11] and in [12] was greater than 100 µM each time. The compound also displayed a TGI in [13] greater than 100 µM.

On to `COc1cccc(CCCNC(=O)Cc2ccccc2CO)c1`, for which the TGI in [1], in [2], in [3], in assay [4], in [5] and in assay [6] was greater than 100 µM each time. Also, the TGI in [7], in assay [8], in [9], in assay [10], in assay [11] and in assay [12] was greater than 100 µM in each case. The TGI in [13] is greater than 100 µM.

For `S=c1[nH]n2c(COc3cc(Cl)c(OCc4nnc5sc(=S)[nH]n45)cc3Cl)nnc2s1`, the TGI in [1], in assay [2], in assay [3], in assay [4], in assay [5] and in assay [6] was greater than 100 µM each time. Also, the TGI in [7], in assay [8], in [9], in assay [10], in assay [11] and in assay [12] was greater than 100 µM throughout. In assay [13], the TGI was greater than 100 µM.

As to `Cc1cc(C)nc(NS(=O)(=O)c2ccc(Nc3c4ccccc4nc4ccc(C(=O)Nc5ccc(S(=O)(=O)N=C(N)N)cc5)cc34)cc2)n1`, the TGI in [1], in assay [2], in assay [3], in assay [4], in [5] and in [6] was greater than 100 µM each time. The TGI in [7], in [8], in [9], in [10], in [11] and in assay [12] was greater than 100 µM each time. The TGI in assay [13] is greater than 100 µM.

Regarding `O=C1C2CC[C@@H]3C(=O)C(Cl)(Cl)[C@@H]3CCC2C1(Cl)Cl` (stereo not given in full), the TGI in [1], in assay [2], in assay [3], in assay [4], in assay [5] and in assay [6] was greater than 100 µM throughout. In addition, the TGI in assay [7], in assay [8], in [9], in assay [10], in assay [11] and in assay [12] was greater than 100 µM in each case. Also, in assay [13], the TGI turned out to be 70.3 µM.

As for `C=CCOC(=O)N1c2ccc(O)cc2[C@@]23O[C@@]24[C@@H]1C#C/C=C\C#C[C@]3(O)C(=O)C[C@@H]4C`, the TGI in [1], in [2], in assay [3], in assay [4], in assay [5] and in assay [6] was greater than 100 µM throughout. Besides, the TGI in assay [7] is greater than 100 µM; in assay [8] it was greater than 100 µM; in [9], 50.1 µM; in assay [10], greater than 100 µM; in assay [11] it was greater than 100 µM; in assay [12], greater than 100 µM. For the same compound, in assay [13], the TGI was 42.3 µM.

For `CSc1nc(C)c2c(n1)N(c1ccc(Cl)cc1)CC2`, the TGI in [1], in assay [2], in [3], in [4], in assay [5] and in assay [6] was greater than 100 µM each time. Also, the TGI in [7], in [8], in assay [9], in assay [10], in [11] and in assay [12] was greater than 100 µM each time. In assay [13], the TGI was greater than 100 µM.

In the case of `COC(=O)C(=O)C(C(=O)C(=O)Nc1ccc(C)c(C)c1)c1nc2ccc([N+](=O)[O-])cc2[nH]c1=O` (stereo not given), the TGI in assay [1], in assay [2], in [3], in assay [4], in [5] and in assay [6] was greater than 100 µM throughout. For the same compound, the TGI in assay [7], in [8], in assay [9], in assay [10], in assay [11] and in assay [12] was greater than 100 µM in each case. This compound gave a TGI in [13] greater than 100 µM.

In the case of `CC(=O)O[C@H]1C(=O)[C@@]2(C)[C@H]([C@H](OC(=O)c3ccco3)[C@]3(O)C[C@H](OC(=O)[C@H](O)[C@@H](NC(=O)c4ccccc4)c4ccccc4)C(C)=C1C3(C)C)[C@]1(OC(C)=O)CO[C@@H]1C[C@@H]2O`, the TGI was greater than 25 µM in assay [1]; greater than 25 µM in assay [2]; 20 µM in [3]; greater than 25 µM in assay [4]; greater than 25 µM in assay [5]; greater than 25 µM in assay [6]. The TGI is 0.0602 µM in assay [7]; greater than 5.05 µM in [8]; greater than 25 µM in assay [9]; greater than 23.5 µM in assay [10]; greater than 25 µM in [12]; greater than 7.67 µM in assay [13].

On to `CCCCCCCCCCCCC1N=C(N)N2CCCC2=C1C(=O)OC` (stereo not given), for which the TGI came to 9.03 µM in assay [1]; 35.4 µM in [2]; 3.25 µM in [3]; 10.3 µM in [4]; 3.64 µM in assay [5]; 4.38 µM in assay [6]. For the same compound, the TGI in assay [7] was 4.72 µM; in assay [8] it was 48.8 µM; in assay [9], 5.86 µM; in [10] it was 3.95 µM; in assay [11] it was 4.88 µM; in assay [13], greater than 100 µM.

Values taken from PubChem BioAssay (NCI).
